Read-outs that look alike come from different tables or passages of the source.
Experiments:
[1] = system: SW480 colon carcinoma cells; test: Cell viability assay (CellTiter-Glo); assay type: cell-based, human; conditions: for EC50: SW480 cells, CellTiter-Glo, four days incubation; for inhibition at 10 µM: SW480, read-out: percent inhibition at 10 μM
[2] = system: α-smooth muscle actin (αSMA) positive LL29 cells; test: Inhibition of fibrotic process: αSMA in TGF-β1 treated primary human fibroblasts from IPF patients; assay type: cell-based; conditions: for EC50: Table 8, LL29 fibroblasts from IPF patients, TGF-β1 20 ng/mL, 4 days; for inhibition at 10 µM: read-out: percent value in parentheses beside EC50 >10 μM;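 for all read-outs here: controls were TGF-β1 stimulated wells with DMSO vehicle (positive) and cells given DMSO alone (negative), cultured in F12 medium with 1% fetal bovine serum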
[3] = system: Wnt pathway (Sp5-Luc reporter, TCF/LEF binding sites) in SW480 colon carcinoma cells; test: Screening assay for Wnt activity: Sp5-Luc reporter gene assay; assay type: cell-based, human; conditions: for EC50: Sp5-Luc reporter, SW480 cells, 36 to 48 hours; for inhibition at 10 µM: SW480, read-out: percent inhibition at 10 μM;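 for all read-outs here: firefly luciferase luminescence read in stably transduced SW480 cells carrying the Sp5 promoter reporter with eight TCF/LEF sites, compounds given in 0.1% DMSO final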
Description: The screening assay for Wnt activity is described as follows.
Following incubation, 15 μl of BriteLite Plus luminescence reagent (Perkin Elmer) was added to each well of the 384-well assay plates. The plates were placed on an orbital shaker for 2 min and then luminescence was quantified using the Envision (Perkin Elmer) plate reader.

[4] = system: Tau phosphorylation at Ser396 (pSer396); test: Tau phosphorylation assay (pSer396 ELISA / western blot) in SH-SY5Y cells; assay type: cell-based, human; conditions: SH-SY5Y cells, overnight (16-18 h) exposure, read-out: pSer396 Tau EC50;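 note: EC50 for reduction of Tau pSer396 in lysed cells, measured by colorimetric ELISA or chemiluminescent western blot, both using the same pSer396 antibody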
[5] = target: recombinant DYRK1A kinase (Homo sapiens (Human), UniProt Q13627); test: DYRK1A kinase assay (Ser/Thr 18 peptide Z-lyte FRET); assay type: biochemical; conditions: 30 μM ATP, 1 h room temperature;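 note: Read-out is the coumarin to fluorescein emission ratio, referenced to unphosphorylated (0%) and phosphorylated (100%) Ser/Thr 18 peptide controls, values from dose-response curves by non-linear regression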
recombinant GSK3β kinase = recombinant GSK3β kinase (Homo sapiens (Human), UniProt P49841); test: GSK3β kinase assay (Ser/Thr 09 peptide Z-lyte FRET); assay type: biochemical; conditions: 46 μM ATP, 1 h room temperature;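 note: kinase activity read as coumarin to fluorescein emission ratio, 11-point threefold dilutions from 10 µM to 0.0003 µM in duplicate, unphosphorylated and phosphorylated peptide as 0% and 100% controls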
IL-6 = IL-6 inhibition in LPS-stimulated human peripheral blood mononuclear cells (HTRF); assay type: cell-based; conditions: for EC50: Table 9, huPBMCs, LPS 50 ng/mL, 22 hours, dose-response starting from 10 μM; for inhibition at 10 µM: read-out: percent value in parentheses beside EC50 >10 μM;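 for all read-outs here: IL-6 detected by HTRF with an XL665- and Cryptate-labelled anti-IL-6 antibody pair, samples run in duplicate, EC50 obtained from a four-parameter Levenberg-Marquardt curve fit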
Description: After 22 hour incubation, a mixture of anti-IL6 XL665 and anti-IL-6 Cryptate diluted in reconstitution buffer (Catalog #62IL6PEC, Cisbio Inc., Bedford, Mass.) was added to each well. […] All samples were processed in duplicate. […] EC50 was determined using software generated by Dotmatics Limited (Windhill Bishops Stortford Herts, UK) using the Levenberg-Marquardt 4 parameter fitting procedure with finite different gradients.

[6] = Homo sapiens, Fibroblast, 96 h, dose-response 10 μM to 0.94 nM

recombinant GSK3β kinase, sequence (P49841 whole entry): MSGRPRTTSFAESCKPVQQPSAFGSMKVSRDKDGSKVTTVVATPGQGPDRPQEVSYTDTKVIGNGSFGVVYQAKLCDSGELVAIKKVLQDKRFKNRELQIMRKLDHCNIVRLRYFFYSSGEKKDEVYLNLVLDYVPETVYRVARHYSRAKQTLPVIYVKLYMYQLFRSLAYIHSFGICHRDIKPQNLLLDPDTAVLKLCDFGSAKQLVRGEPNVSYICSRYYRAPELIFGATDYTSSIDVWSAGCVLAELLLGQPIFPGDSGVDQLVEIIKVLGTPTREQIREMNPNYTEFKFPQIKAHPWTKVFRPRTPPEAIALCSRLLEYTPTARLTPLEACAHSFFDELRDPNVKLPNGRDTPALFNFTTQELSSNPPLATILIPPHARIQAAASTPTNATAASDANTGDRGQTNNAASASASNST

| Structure (SMILES) | EC50 ([1]; Homo sapiens, 96 h) [nM] | EC50 [2, 6] [nM] | EC50 ([3]; Homo sapiens) [nM] | EC50 ([4]; Homo sapiens) [nM] | EC50 [5] [nM] | EC50 (recombinant GSK3β kinase) [nM] | EC50 (IL-6; Homo sapiens, PBMC) [nM] | inhibition at 10 µM ([1]; Homo sapiens) [%] | inhibition at 10 µM ([2]; Homo sapiens, Fibroblast) [%] | inhibition at 10 µM (IL-6; Homo sapiens, PBMC) [%] | inhibition at 10 µM ([3]; Homo sapiens) [%] | EC50 [1] [nM] | EC50 ([2]; dose-response 10 μM to […]) [nM] | EC50 [3] [nM] | EC50 [4] [nM] | EC50 (IL-6) [nM] |
| --- | --- | --- | --- | --- | --- | --- | --- | --- | --- | --- | --- | --- | --- | --- | --- | --- |
| Cc1ncc(-c2ccc3cnc(NC(=O)C4CC4)cc3c2)n1C [Compound 119, N-(6-(1,2-Dimethyl-1H-imidazol-5-yl)isoquinolin-3-yl) cyclopropanecarboxamide] | 525 | 1410 | 1060 | 418 | 2.9 | 7 | 1200 | – | – | – | – | – | – | – | – | – |
| Cn1cc(-c2ccc3cnc(NC(=O)CN4CC(C)(C)C4)cc3c2)cn1 [Compound 273, 2-(3,3-Dimethylazetidin-1-yl)-N-[6-(1-methylpyrazol-4-yl)-3-isoquinolyl]acetamide] | 1180 | 515 | 1510 | 492 | 10.7 | 48 | 842 | – | – | – | – | – | – | – | – | – |
| Cn1cc(-c2ccc3cnc(NC(=O)C4CCN(Cc5ncccn5)CC4)cc3c2)cn1 [Compound 1003, N-(6-(1-Methyl-1H-pyrazol-4-yl)isoquinolin-3-yl)-1-(pyrimidin-2-ylmethyl)piperidine-4-carboxamide] | 804 | 49 | 1320 | 732 | 2.1 | 43 | 1150 | – | – | – | – | – | – | – | – | – |
| Cn1cc(-c2cc(F)c3cnc(NC(=O)C4CCN(CCF)CC4)cc3c2)cn1 [Compound 368, N-(8-Fluoro-6-(1-methyl-1H-pyrazol-4-yl)isoquinolin-3-yl)-1-(2-fluoroethyl) piperidine-4-carboxamide] | 651 | 272 | 689 | 660 | 7.9 | 51 | 1190 | – | – | – | – | – | – | – | – | – |
| O=C(Nc1cc2cc(-c3cnco3)ccc2cn1)C1CCN(CCC(F)(F)F)CC1 [Compound 308, N-(6-(Oxazol-5-yl)isoquinolin-3-yl)-1-(3,3,3-trifluoropropyl)piperidine-4-carboxamide] | > 10000 | > 10000 | 1810 | 361 | 2.4 | 107 | 9230 | 32 | 27.6 | – | – | – | – | – | – | – |
| O=C(CN1CCCCC1)Nc1cc2cc(-c3cncs3)ccc2cn1 [Compound 760, 2-(Piperidin-1-yl)-N-(6-(thiazol-5-yl)isoquinolin-3-yl)acetamide] | 3280 | 765 | 3970 | 1200 | 3.8 | 133 | 1240 | – | – | – | – | – | – | – | – | – |
| Cn1cc(-c2ccc3cnc(NC(=O)C4CCN(C(=O)CN5CCCC5)CC4)cc3c2)cn1 [Compound 336, N-(6-(1-Methyl-1H-pyrazol-4-yl)isoquinolin-3-yl)-1-(2-(pyrrolidin-1-yl)acetyl)piperidine-4-carboxamide] | 510 | > 10000 | 395 | 820 | 2.9 | 83 | 569 | – | 38.4 | – | – | – | – | – | – | – |
| Cc1nnc(-c2ccc3cnc(NC(=O)CN4C[C@H]5C[C@@H]4CO5)cc3c2)s1 [Compound 960, 2-((1R,4R)-2-Oxa-5-azabicyclo[2.2.1]heptan-5-yl)-N-(6-(5-methyl-1,3,4-thiadiazol-2-yl)isoquinolin-3-yl)acetamide] | 6670 | 957 | 1660 | 233 | 17.1 | 15 | > 10000 | – | – | 8.2 | – | – | – | – | – | – |
| Cc1ncc(-c2ccc3cnc(NC(=O)[C@@H]4CCCO4)cc3c2)n1C [Compound 188, (S)—N-(6-(1,2-Dimethyl-1H-imidazol-5-yl)isoquinolin-3-yl)tetrahydrofuran-2-carboxamide] | > 10000 | > 10000 | > 10000 | 4220 | 28.6 | 265 | 9980 | – | 12.4 | – | – | – | – | – | – | – |
| [2H]C1([2H])CCC([2H])([2H])N1CC(=O)Nc1cc2cc(-c3cnn(C)c3)ccc2cn1 [Compound 315, N-(6-(1-Methyl-1H-pyrazol-4-yl)isoquinolin-3-yl)-2-(pyrrolidin-1-yl-2,2,5,5-d4)acetamide] | 1250 | 1820 | 1590 | 346 | 12.3 | 44 | 819 | – | – | – | – | – | – | – | – | – |
| Cc1nnc(-c2ccc3cnc(NC(=O)C4(F)CCCCC4)cc3c2)s1 [Compound 883, 1-Fluoro-N-(6-(5-methyl-1,3,4-thiadiazol-2-yl)isoquinolin-3-yl)cyclohexane-1-carboxamide] | > 10000 | > 10000 | > 10000 | 1100 | 8.9 | 76 | > 10000 | 35.5 | 14 | 9.1 | 43.2 | – | – | – | – | – |
| C[C@H](F)CN1CCC(C(=O)Nc2cc3cc(-c4cnn(C)c4)ccc3cn2)CC1 [Compound 311, (S)-1-(2-Fluoropropyl)-N-(6-(1-methyl-1H-pyrazol-4-yl)isoquinolin-3-yl) piperidine-4-carboxamide] | – | – | – | – | 1.9 | 20 | – | – | – | – | – | 751 | 76 | 578 | 163 | 396 |
| Cn1ncc(-c2ccc3cnc(NC(=O)C4CC5(C4)CN(CCF)C5)cc3c2)c1CN1CCCCC1 [Compound 791, 2-(2-Fluoroethyl)-N-(6-(1-methyl-5-(piperidin-1-ylmethyl)-1H-pyrazol-4-yl)isoquinolin-3-yl)-2-azaspiro[3.3]heptane-6-carboxamide] | 137 | 67 | 212 | 55 | 2.2 | 5 | 350 | – | – | – | – | – | – | – | – | – |
| CC(C(=O)Nc1cc2cc(-c3cncs3)ccc2cn1)N1CCCC1 (stereo not shown) [Compound 758, 2-(Pyrrolidin-1-yl)-N-(6-(thiazol-5-yl)isoquinolin-3-yl)propanamide] | 1340 | 265 | 1250 | 384 | 24.3 | 50 | 2870 | – | – | – | – | – | – | – | – | – |
| CN1CCC(N2CCC(C(=O)Nc3cc4cc(-c5cnn(C)c5)ccc4cn3)CC2)CC1 [Compound 331, 1′-Methyl-N-(6-(1-methyl-1H-pyrazol-4-yl)isoquinolin-3-yl)-[1,4′-bipiperidine]-4-carboxamide] | 3120 | 96 | 2990 | 311 | 1.8 | 55 | 882 | – | – | – | – | – | – | – | – | – |
| Cn1cc(-c2ccc3cnc(NC(=O)CC4CNCCO4)cc3c2)cn1 (stereo not shown) [Compound 349, N-(6-(1-Methyl-1H-pyrazol-4-yl)isoquinolin-3-yl)-2-(morpholin-2-yl) acetamide] | 704 | 145 | 712 | 351 | 6.5 | 66 | 307 | – | – | – | – | – | – | – | – | – |
| Cn1cncc1-c1ccc2cnc(NC(=O)C3CNC3)cc2c1 [Compound 535, N-(6-(1-Methyl-1H-imidazol-5-yl)isoquinolin-3-yl)azetidine-3-carboxamide] | > 10000 | > 10000 | > 10000 | 6200 | 4.5 | 87 | > 10000 | 42 | 17.7 | 3.1 | 44.9 | – | – | – | – | – |
| C[C@@H]1CCCN1CC(=O)Nc1cc2cc(-c3cnn(C)c3)ccc2cn1 [Compound 289, (R)—N-(6-(1-Methyl-1H-pyrazol-4-yl)isoquinolin-3-yl)-2-(2-methylpyrrolidin-1-yl)acetamide] | 7760 | > 10000 | 2650 | 185 | 13.7 | 62 | 3200 | – | 14.3 | – | – | – | – | – | – | – |
| CN1CCN(C[C@H]2CC[C@H](C(=O)Nc3cc4cc(-c5cn(C)nn5)ccc4cn3)CC2)CC1 [Compound 448, trans-N-(6-(1-Methyl-1H-1,2,3-triazol-4-yl)isoquinolin-3-yl)-4-((4-methylpiperazin-1-yl)methyl)cyclohexane-1-carboxamide] | 626 | 59 | 289 | 106 | 1.2 | 11 | 2180 | – | – | – | – | – | – | – | – | – |
| CCN(CC)CC(=O)Nc1cc2cc(-c3cnn(C)c3CN3CCCCC3)ccc2cn1 [Compound 785, 2-(Diethylamino)-N-(6-(1-methyl-5-(piperidin-1-ylmethyl)-1H-pyrazol-4-yl)isoquinolin-3-yl)acetamide] | 2860 | 1170 | 2840 | 485 | 10.1 | 44 | 9150 | – | – | – | – | – | – | – | – | – |
